Test results reported in paper PMC10850047, “Exploring the impact of PEGylation on pharmacokinetics: a size-dependent effect of polyethylene glycol on prostate-specific membrane antigen inhibitors” (EJNMMI Research, 2024).
Like-named read-outs stand apart in the source and are kept apart here.

Columns and labels:
PC3-PIP tumors [1] = test: Micro-PET/CT blocking experiment with 2-PMPA, PC3-PIP tumor model; type: in vivo, mice; settings: identical methodology
Protocol: (§1) To perform imaging studies, the male mice bearing LNCaP tumors were injected with the corresponding radioligand (~ 2.5 MBq; 100 μL) via their tail veins. The micro-PET/CT scans (Inveon PET, Siemens) were conducted at 10, 30, 60, and 120 min after injection. The mice were anesthetized and maintained under 2% isoflurane in oxygen at a flow rate of 2 L/min during the 2-h imaging study. First, a 10 min static PET imaging acquisition was carried out, followed by a 10 min CT scan for localization and attenuation correction. Data analysis was performed using Inveon Research Workplace software. For PC3-PIP tumor model, the imaging studies were performed with micro-PET/SPECT/CT (Inliview-3000B, Novel Medical). Data analysis was performed using Nmsoft-Al ws v1.7–1 software.
(§2) To evaluate the specificity of radioligands, blocking experiments were performed. In brief, 40 nmol of the PSMA inhibitor 2-PMPA was administered, followed by the injection of approximately 2.6 MBq of radioligands after 30 min. Then a static scan of micro-PET/CT was performed 60 min later.

[2] = test system: LNCaP tumor-bearing NOD/SCID mice; settings: mouse, in vivo
LNCaP cells = test: Uptake and internalization in LNCaP cells; type: cell-based, human; settings: 120 min incubation, normalized to 10^6 cells
Protocol: LNCaP prostate cancer cell line obtained from the American Type Culture Collection (ATCC, Manassas, VA) was used for cell affinity studies. […] The supernatant was disposed, and the cell pellet was resuspended in a culture medium, and LNCaP cells (150,000 cells/well) were counted with a hemocytometer and seeded in poly-L-lysine-coated 24-well plates used in cell binding studies. The cells were then allowed to grow at 37 °C for 48 h. PC3-PIP cells provided by Professor Xiaoyuan Chen (Singapore) require additional Puromycin (2 µg/ml) in addition to the appealed culture conditions.

LNCaP tumors = test: Micro-PET/CT blocking experiment with 2-PMPA, LNCaP tumor model; type: in vivo, mice; settings: 40 nmol 2-PMPA 30 min before radioligand, static scan 60 min later
Protocol: as §1, §2

[3] = test system: PC3-PIP tumor-bearing balb/c-nu mice; test: Biodistribution in PC3-PIP tumor model; type: in vivo; settings: mean ± SD (n=5)
Protocol: All animal experiments were performed with the approval of the institutional animal ethics committee. Male NOD/SCID mice (5 − 6 weeks old) implanted with LNCaP cells were used for imaging and biodistribution experiments as previously described. The mice were imaged or used in biodistribution studies once the tumor grew to 8 − 10 mm in diameter over a period of 4 − 5 weeks. At the same time, male balb/c-nu mice (5 − 6 weeks old) implanted with PC3-PIP cells were used as an alternative tumor model for imaging and biodistribution experiments.
To conduct biodistribution studies, male mice bearing LNCaP or PC3-PIP tumors with an average body weight of approximately 20 ± 5 g and a tumor diameter of 8 − 10 mm were administered a bolus injection of 2.5 MBq of the corresponding radioligand via the tail vein. After 30, 60, and 120 min, the mice were anesthetized with isoflurane and subsequently euthanized by CO2 asphyxiation. Blood was drawn, and the organs of interest were promptly harvested, blotted dry, and weighed. The radioactivity of the collected mouse organs was measured and expressed as the percentage of the injected dose per gram of tissue (%ID/g). Each group consisted of at least five mice.

[4] = Radiochemical stability in PBS at 37 °C; type: physicochemical; settings: 2 h
Protocol: (§3) The radiochemical purity of samples incubated in PBS at each time point was determined using RP-HPLC. For the samples in human serum, a pretreatment step was applied. Briefly, the human serum samples underwent precipitation with acetonitrile, and the radiochemical purity of each supernatant aliquot was determined using RP-HPLC after centrifugation for 5 min at 10,000 rpm. The experiments were performed in triplicate.

[5] = test system: LNCaP tumor-bearing NOD/SCID mice; test: Biodistribution in LNCaP tumor model
PSMA = molecular target: T1, PSMA (Homo sapiens, UniProt Q04609); test: Competitive cell binding assay against [68Ga]Ga-PSMA-11 on LNCaP cells; settings: competition with [68Ga]Ga-PSMA-11, natGa-labeled standards, 1 h 37 °C
T1 construct: host or cells: LNCaP
Protocol: LNCaP prostate cancer cell line obtained from the American Type Culture Collection (ATCC, Manassas, VA) was used for cell affinity studies. The cells were grown in a meilunbio RPMI 1640 medium (ATCC modified) supplemented with 10% fetal bovine serum and 1% streptomycin/penicillin (Thermo Fisher Scientific, USA) at 37 °C in a humidified 5% CO2 atmosphere. Two days (48 ± 2 h) prior to in vitro experiments, the cells were harvested using trypsin-ethylenediaminetetraacetic acid (EDTA; 0.25% trypsin, 0.02% EDTA) in PBS and centrifuged. The supernatant was disposed, and the cell pellet was resuspended in a culture medium, and LNCaP cells (150,000 cells/well) were counted with a hemocytometer and seeded in poly-L-lysine-coated 24-well plates used in cell binding studies. The cells were then allowed to grow at 37 °C for 48 h. PC3-PIP cells provided by Professor Xiaoyuan Chen (Singapore) require additional Puromycin (2 µg/ml) in addition to the appealed culture conditions. Detailed information regarding uptake and internalization experiments can be found in the previous report.
In order to determine the binding affinity, a competitive cell binding assay was performed. […] The total radioactivity in each well was measured with a gamma counter. […]

[6] = Radiochemical stability in human serum at 37 °C; type: in vitro ADME; settings: 2 h
Protocol: as §3

PC3-PIP tumors [7] = test: Micro-SPECT/CT imaging of 177Lu-labeled ligands in PC3-PIP tumor model; type: in vivo; settings: balb/c-nu mice, scans 1-168 h
Protocol: as §1
Balb/c-nu mice carrying PC3-PIP tumors were chosen for the micro-SPECT/CT imaging investigation of [^177Lu]Lu-PP4-WD and [^177Lu]Lu-PP8-WD (see Additional file 1: Figure S8).

T1 sequence (Q04609 whole entry): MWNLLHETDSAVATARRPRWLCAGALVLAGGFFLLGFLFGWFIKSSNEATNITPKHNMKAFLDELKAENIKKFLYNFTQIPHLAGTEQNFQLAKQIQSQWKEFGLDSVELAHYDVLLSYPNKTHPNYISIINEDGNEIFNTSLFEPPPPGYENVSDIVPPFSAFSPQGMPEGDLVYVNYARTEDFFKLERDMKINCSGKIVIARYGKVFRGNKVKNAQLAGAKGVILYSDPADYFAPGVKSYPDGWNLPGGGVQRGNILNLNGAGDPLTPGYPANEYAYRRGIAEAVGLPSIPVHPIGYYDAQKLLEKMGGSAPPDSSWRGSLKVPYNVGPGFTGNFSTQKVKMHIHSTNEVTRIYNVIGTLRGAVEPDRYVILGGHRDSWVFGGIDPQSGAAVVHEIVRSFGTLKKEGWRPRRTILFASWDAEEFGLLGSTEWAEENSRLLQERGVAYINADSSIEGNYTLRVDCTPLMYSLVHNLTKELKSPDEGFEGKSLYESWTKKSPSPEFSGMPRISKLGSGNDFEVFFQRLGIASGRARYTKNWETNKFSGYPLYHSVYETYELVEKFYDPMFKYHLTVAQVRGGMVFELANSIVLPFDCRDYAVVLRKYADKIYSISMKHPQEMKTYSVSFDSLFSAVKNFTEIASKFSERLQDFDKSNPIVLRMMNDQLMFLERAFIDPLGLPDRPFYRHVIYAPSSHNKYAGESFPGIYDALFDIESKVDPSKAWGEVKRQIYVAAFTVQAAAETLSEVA

O=C([O-])CN1CCN(CC(=O)[O-])CCN(CC(=O)NCCOCCOCCOCCOCCOCCOCCOCCOCCNC(=O)CN(CCCC[C@H](NC(=O)N[C@@H](CCC(=O)O)C(=O)O)C(=O)O)C(=O)C2c3ccccc3-c3ccccc32)CCN(CC(=O)[O-])CC1.[68Ga+3] [[^68Ga]Ga-PP8-WD]
Outcome of blocking imaging with 2-PMPA (PC3-PIP tumors [1]): in concordance with those observed in the LNCaP tumor model | Renal uptake reduced by a factor compared to [68Ga]Ga-Flu-1 [2]: 20 | Renal uptake, fold less compared to [68Ga]Ga-Flu-1 [2]: fivefold | Tumor uptake ([2]; 0.5 h): 16.18 ± 2.53 %ID/g | Tumor uptake ([2]; 1 h): 18.64 ± 2.20 %ID/g | Tumor uptake ([2]; 2 h): 17.12 ± 2.57 %ID/g | Internalization in LNCaP cells (LNCaP cells): 5.72 ± 0.95% | Uptake in LNCaP cells (LNCaP cells): 10.16 ± 1.87% | Radioactivity upon blocking with 2-PMPA (LNCaP tumors): substantially reduced radioactivity | Blood uptake ([3]; 30 min p.i.): 5.2±0.77 %ID/g | Bone uptake ([3]; 30 min p.i.): 1.21±0.57 %ID/g | Brain uptake ([3]; 30 min p.i.): 0.13±0.05 %ID/g | Heart uptake ([3]; 30 min p.i.): 1.21±0.19 %ID/g | Kidney uptake ([3]; 30 min p.i.): 11.38±3.15 %ID/g | Liver uptake ([3]; 30 min p.i.): 1.11±0.10 %ID/g | Lung uptake ([3]; 30 min p.i.): 2.64±0.23 %ID/g | Muscle uptake ([3]; 30 min p.i.): 0.45±0.06 %ID/g | Salivary uptake ([3]; 30 min p.i.): 1.23±0.17 %ID/g | Small int (small intestine) uptake ([3]; 30 min p.i.): 0.87±0.18 %ID/g | Spleen uptake ([3]; 30 min p.i.): 1.39±0.26 %ID/g | Stomach uptake ([3]; 30 min p.i.): 0.83±0.17 %ID/g | Tumor uptake ([3]; 30 min p.i.): 12.81±4.48 %ID/g | Blood uptake ([3]; 60 min p.i.): 3.89±0.18 %ID/g | Bone uptake ([3]; 60 min p.i.): 1.26±0.07 %ID/g | Brain uptake ([3]; 60 min p.i.): 0.12±0.02 %ID/g | Heart uptake ([3]; 60 min p.i.): 1.09±0.12 %ID/g | Kidney uptake ([3]; 60 min p.i.): 4.52±1.51 %ID/g | Liver uptake ([3]; 60 min p.i.): 1.24±0.16 %ID/g | Lung uptake ([3]; 60 min p.i.): 2.25±0.13 %ID/g | Muscle uptake ([3]; 60 min p.i.): 0.52±0.07 %ID/g | Salivary uptake ([3]; 60 min p.i.): 1.49±0.37 %ID/g | Small int (small intestine) uptake ([3]; 60 min p.i.): 0.92±0.23 %ID/g | Spleen uptake ([3]; 60 min p.i.): 1.30±0.21 %ID/g | Stomach uptake ([3]; 60 min p.i.): 0.98±0.09 %ID/g | Tumor uptake ([3]; 60 min p.i.): 15.21 ± 3.33 %ID/g | Blood uptake ([3]; 120 min p.i.): 3.12±0.48 %ID/g | Bone uptake ([3]; 120 min p.i.): 1.62±0.13 %ID/g | Brain uptake ([3]; 120 min p.i.): 0.13±0.03 %ID/g | Heart uptake ([3]; 120 min p.i.): 0.94±0.16 %ID/g | Kidney uptake ([3]; 120 min p.i.): 2.74±0.38 %ID/g | Liver uptake ([3]; 120 min p.i.): 1.38±0.19 %ID/g | Lung uptake ([3]; 120 min p.i.): 2.16±0.14 %ID/g | Muscle uptake ([3]; 120 min p.i.): 0.43±0.11 %ID/g | Salivary uptake ([3]; 120 min p.i.): 1.26±0.27 %ID/g | Small int (small intestine) uptake ([3]; 120 min p.i.): 0.89±0.27 %ID/g | Spleen uptake ([3]; 120 min p.i.): 0.96±0.14 %ID/g | Stomach uptake ([3]; 120 min p.i.): 0.79±0.08. %ID/g | Tumor uptake ([3]; 120 min p.i.): 14.3±5.37 %ID/g | Radiochemical purity after incubation in PBS [4]: 97% | Tumor/Blood ratio ([5]; 30 min): 4.67±0.32 | Tumor/Heart ratio ([5]; 30 min): 12.31±0.58 | Tumor/Kidney ratio ([5]; 30 min): 0.63±0.11 | Tumor/Liver ratio ([5]; 30 min): 10.58±0.32 | Tumor/Salivary ratio ([5]; 30 min): 5.23±0.24 | Tumor/Blood ratio ([5]; 60 min): 5.31±0.54 | Tumor/Heart ratio ([5]; 60 min): 31.66±2.2 | Tumor/Kidney ratio ([5]; 60 min): 1.22±0.35 | Tumor/Liver ratio ([5]; 60 min): 23.74±1.90 | Tumor/Salivary ratio ([5]; 60 min): 11.50±1.19 | Tumor/Blood ratio ([5]; 120 min): 30.88±1.36 | Tumor/Heart ratio ([5]; 120 min): 75.85±3.6 | Tumor/Kidney ratio ([5]; 120 min): 2.68±0.22 | Tumor/Liver ratio ([5]; 120 min): 41.69±2.9 | Tumor/Salivary ratio ([5]; 120 min): 45.05±2.56 | IC50 (PSMA): 6.13 ± 0.79 nM | Radiochemical purity after incubation in human serum [6]: 96.69 ± 0.21%

O=C([O-])CN1CCN(CC(=O)[O-])CCN(CC(=O)NCCOCCOCCOCCOCCOCCOCCOCCOCCNC(=O)CN(CCCC[C@H](NC(=O)N[C@@H](CCC(=O)O)C(=O)O)C(=O)O)C(=O)C2c3ccccc3-c3ccccc32)CCN(CC(=O)[O-])CC1.[177Lu+3] [[^177Lu]Lu-PP8-WD]
Tumor-to-background ratio in micro-SPECT/CT (PC3-PIP tumors [7]): favorable tumor-to-background ratio for up to 168 h
